# Molecular target: T1, Prostaglandin G/H synthase 1 (Ovis aries, UniProt P05979)
# T1 sequence (P05979 whole entry): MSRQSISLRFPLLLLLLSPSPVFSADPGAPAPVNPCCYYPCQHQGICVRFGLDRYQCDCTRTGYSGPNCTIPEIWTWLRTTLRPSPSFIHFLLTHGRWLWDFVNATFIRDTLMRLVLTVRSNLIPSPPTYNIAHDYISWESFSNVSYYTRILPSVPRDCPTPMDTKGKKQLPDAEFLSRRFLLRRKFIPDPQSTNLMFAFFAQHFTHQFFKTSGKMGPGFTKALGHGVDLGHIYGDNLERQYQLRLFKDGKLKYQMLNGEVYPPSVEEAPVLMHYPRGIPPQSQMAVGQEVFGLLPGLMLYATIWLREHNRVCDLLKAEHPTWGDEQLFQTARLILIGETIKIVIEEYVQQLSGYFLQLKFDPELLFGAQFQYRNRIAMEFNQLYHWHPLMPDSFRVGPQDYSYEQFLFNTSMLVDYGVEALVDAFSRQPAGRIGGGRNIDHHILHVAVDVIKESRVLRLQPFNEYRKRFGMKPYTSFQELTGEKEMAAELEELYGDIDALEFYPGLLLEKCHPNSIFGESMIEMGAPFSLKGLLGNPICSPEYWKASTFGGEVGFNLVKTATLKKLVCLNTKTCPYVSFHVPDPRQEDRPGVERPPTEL
# Description: Inhibition of ovine COX1 by chemiluminescent enzyme assay
row,IC50,SMILES
1,13.4 µM,CS(=O)(=O)c1ccc(-c2cc(C(=O)O)c3ccccc3n2)cc1
2,14.2 µM,Cc1cccc2c(C(=O)O)cc(-c3ccc(S(C)(=O)=O)cc3)nc12
3,14.7 µM,CS(=O)(=O)c1ccc(-c2cc(C(=O)O)c3cccc(-c4ccccc4)c3n2)cc1
4,22.1 µM,CS(=O)(=O)c1ccc(-c2cc(C(=O)O)c3ccc4c(c3n2)CCCC4)cc1
5,14.5 µM,Cc1ccc2c(C(=O)O)cc(-c3ccc(S(C)(=O)=O)cc3)nc2c1C
6,17.6 µM,CS(=O)(=O)c1ccc(-c2cc(C(=O)O)c3ccc4ccccc4c3n2)cc1

# Source: ChEMBL document CHEMBL1155266, “Synthesis and biological evaluation of new 4-carboxyl quinoline derivatives as cyclooxygenase-2 inhibitors” (Bioorg Med Chem, 2009)
